Source: US20230159453A1 (COCRYSTAL PHARMA, INC., priority 2020, published 2023)

Each compound was assayed against SARS2 protease (Severe acute respiratory syndrome coronavirus 2, UniProt P0DTD1) (assay: SARS-CoV-2 protease inhibition assay (SARS2 FRET protease assay)). Conditions: SARS-CoV-2 protease 25 nM, FRET, peptide substrate 1.3 μM, 30 minutes at 30° C., compounds 20 μM to 1.0 nM; read-out: IC50.
Format: biochemical

With CC(C)C[C@H](NC(=O)OC(Cc1cccc(Cl)c1)c1ccccc1)C(=O)N[C@@H](C[C@@H]1CCNC1=O)C(=O)C(=O)NC1CC1 (stereo partly drawn) [Compound C147, 2-(3-Chlorophenyl)-1-phenylethyl ((S)-1-(((S)-4-(cyclopropylamino)-3,4-dioxo-1-((S)-2-oxopyrrolidin-3-yl)butan-2-yl)amino)-4-methyl-1-oxopentan-2-yl) carbamate] as the compound, how does the IC50 read?
The IC50 was 3000 nM.

Which IC50 does the source give for CC(=O)N1CCC2(CC1)CC(CC(NC(=O)C(Cc1ccccc1)NC(=O)c1cnc3ccccc3n1)C(=O)C(N)=O)C(=O)N2 (stereo in doubt) [Compound C130, N-((2S)-1-((1-(8-acetyl-2-oxo-1,8-diazaspiro[4.5]decan-3-yl)-4-amino-3,4-dioxobutan-2-yl)amino)-1-oxo-3-phenylpropan-2-yl)quinoxaline-2-carboxamide] here?
The IC50 was greater than 20000 nM.

For O=C[C@H](C[C@@H]1CCNC1=O)NC(=O)[C@H](CC1CCCCC1)NC(=O)OC(Cc1cccc(Cl)c1)c1cccc(Cl)c1 (stereo partly drawn) [Compound C272, 1,2-Bis(3-chlorophenyl)ethyl ((S)-3-cyclohexyl-1-oxo-1-(((S)-1-oxo-3-((S)-2-oxopyrrolidin-3-yl)propan-2-yl)amino)propan-2-yl)carbamate], which IC50 is on record?
Its IC50 is 320 nM.

For CC(C)C[C@H](NC(=O)OC(Cc1cccc(Cl)c1)c1ccccc1)C(=O)N[C@@H](C[C@@H]1CCNC1=O)C(=O)NS(=O)(=O)C1CC1 (stereo partly drawn) [Compound C249], which IC50 is on record?
Its IC50 is greater than 20000 nM.

How did the IC50 turn out when O=C(N[C@@H](CC1CCCCC1)C(=O)N[C@@H](C[C@@H]1CC2(CCCC2)NC1=O)C(=O)C(=O)NC1CC1)OC1CCCC1Cc1cccc(Cl)c1 (stereo partly drawn) [Compound C159, 2-(3-Chlorobenzyl)cyclopentyl ((2S)-3-cyclohexyl-1-((4-(cyclopropylamino)-3,4-dioxo-1-(2-oxo-1-azaspiro[4.4]nonan-3-yl)butan-2-yl)amino)-1-oxopropan-2-yl)carbamate] was run?
The IC50 was 3490 nM.

Which IC50 does the source give for CC(C)(c1cccc(Cl)c1)C(OC(=O)N[C@@H](CC1CCCCC1)C(=O)N[C@@H](C[C@@H]1CCNC1=O)C(=O)C(=O)N1CCCC1)c1ccc2ccccc2c1 (stereo partly drawn) [Compound C150, 2-(3-Chlorophenyl)-2-methyl-1-(naphthalen-2-yl)propyl ((S)-3-cyclohexyl-1-(((S)-3,4-dioxo-1-((S)-2-oxopyrrolidin-3-yl)-4-(pyrrolidin-1-yl)butan-2-yl)amino)-1-oxopropan-2-yl)carbamate] here?
The IC50 was greater than 20000 nM.

Which IC50 does the source give for CC1(C)CC(C[C@@H](C=O)NC(=O)[C@H](CC2CCCCC2)NC(=O)OC(Cc2cccc(Cl)c2)c2cccc(Cl)c2)C(=O)N1 (stereo partly drawn) [Compound C162, 1,2-Bis(3-Chlorophenyl)ethyl ((2S)-3-cyclohexyl-1-((1-(5,5-dimethyl-2-oxopyrrolidin-3-yl)-3-oxopropan-2-yl)amino)-1-oxopropan-2-yl)carbamate] here?
The IC50 was 92.2 nM.

For COc1cccc2[nH]c(C(=O)N[C@@H](CC3CCCCC3)C(=O)NC(C=O)CC3CC4(CCN(C(C)=O)CC4)NC3=O)cc12 (stereo partly drawn) [Compound C133, N-((2S)-1-((1-(8-acetyl-2-oxo-1,8-diazaspiro[4.5]decan-3-yl)-3-oxopropan-2-yl)amino)-3-cyclohexyl-1-oxopropan-2-yl)-4-methoxy-1H-indole-2-carboxamide], which IC50 is on record?
Its IC50 is 0.0855 nM.

CC(C)C[C@H](NC(=O)O[C@@H](c1ccccc1)C(C)(C)c1cccc(Cl)c1)C(=O)N[C@H](C=O)C[C@@H]1CCNC1=O [Compound C275] was tested. Which IC50 did it give?
Its IC50 is 20 nM.

CCOP(=O)(OCC)C(O)[C@H](CCC(=O)N1CCOc2ccc(Cl)cc2C1)NC(=O)[C@H](CC1CCCCC1)NC(=O)OCc1cccc(Cl)c1 (stereo partly drawn) [Compound C9, 3-Chlorobenzyl ((2S)-1-(((2S)-5-(7-chloro-2,3-dihydrobenzo[f][1,4]oxazepin-4(5H)-yl)-1-(diethoxyphosphoryl)-1-hydroxy-5-oxopentan-2-yl)amino)-3-cyclohexyl-1-oxopropan-2-yl)carbamate] was tested. Which IC50 did it give?
Its IC50 is greater than 200000 nM.

With CC(C)(c1cccc(Cl)c1)[C@H](OC(=O)N[C@@H](CC1CCCCC1)C(=O)N[C@@H](C[C@@H]1CCNC1=O)C(=O)C(=O)NC1CC1)c1cccc(F)c1 [Compound C185, (R)-2-(3-chlorophenyl)-1-(3-fluorophenyl)-2-methylpropyl ((S)-3-cyclohexyl-1-(((S)-4-(cyclopropylamino)-3,4-dioxo-1-((S)-2-oxopyrrolidin-3-yl)butan-2-yl)amino)-1-oxopropan-2-yl)carbamate] as the compound, how does the IC50 read?
Its IC50 is 143 nM.

For CC(C)(c1cccc(Cl)c1)C(OC(=O)N[C@@H](CC1CCCCC1)C(=O)N[C@@H](C[C@@H]1CCNC1=O)C(=O)C(=O)NC1CC1)c1ccc(Cl)cc1 (stereo partly drawn) [Compound C145, 2-(3-Chlorophenyl)-1-(4-chlorophenyl)-2-methylpropyl ((S)-3-cyclohexyl-1-(((S)-4-(cyclopropylamino)-3,4-dioxo-1-((S)-2-oxopyrrolidin-3-yl)butan-2-yl)amino)-1-oxopropan-2-yl) carbamate], which IC50 is on record?
The IC50 was 4300 nM.

How did the IC50 turn out when CCOCCNC(=O)C(=O)[C@H](C[C@@H]1CCNC1=O)NC(=O)[C@H](CC1CCCCC1)NC(=O)OC(c1ccccc1)C(C)(C)c1cccc(Cl)c1 (stereo partly drawn) [Compound C271] was run?
The IC50 was 2000 nM.

For CC(C)C[C@H](NC(=O)OC(c1ccccc1)C(C)(C)c1cccc(Cl)c1)C(=O)N[C@@H](C[C@@H]1CCNC1=O)C(=O)C(=O)N1CCCCC1 (stereo partly drawn) [Compound C270], which IC50 is on record?
Its IC50 is 4410 nM.

For CCOP(=O)(OCC)C(O)[C@H](CC(C)C(=O)N1CCOc2ccccc2C1)NC(=O)[C@H](CC1CCCCC1)NC(=O)OCc1cccc(Cl)c1 (stereo partly drawn) [Compound C11, 3-chlorobenzyl ((2S)-3-cyclohexyl-1-(((2S)-1-(diethoxyphosphoryl)-5-(2,3-dihydrobenzo[f][1,4]oxazepin-4(5H)-yl)-1-hydroxy-4-methyl-5-oxopentan-2-yl)amino)-1-oxopropan-2-yl)carbamate], which IC50 is on record?
The IC50 was greater than 200000 nM.

Which IC50 does the source give for CC1(C)CC(CC(C=O)NC(=O)[C@H](CC2CCCCC2)NC(=O)OC(c2cccc(F)c2)C(C)(C)c2cccc(Cl)c2)C(=O)N1 (stereo partly drawn) [Compound C222, 2-(3-Chlorophenyl)-1-(3-fluorophenyl)-2-methylpropyl ((2S)-3-cyclohexyl-1-((1-(5,5-dimethyl-2-oxopyrrolidin-3-yl)-3-oxopropan-2-yl)amino)-1-oxopropan-2-yl)carbamate] here?
Its IC50 is 235 nM.

CC(C)C[C@H](NC(=O)OC(c1ccccc1)C(C)(C)c1cccc(Cl)c1)C(=O)N[C@H](C=O)C[C@@H]1CCNC1=O (stereo partly drawn) [Compound C108, 2-(3-Chlorophenyl)-2-methyl-1-phenylpropyl ((S)-4-methyl-1-oxo-1-(((S)-1-oxo-3-((S)-2-oxopyrrolidin-3-yl)propan-2-yl)amino)pentan-2-yl) carbamate] was tested. Which IC50 did it give?
The IC50 was 1.2 nM.

For CC(C)C[C@H](NC(=O)OCC(C)(C)c1cccc(Cl)c1)C(=O)N[C@@H](C[C@@H]1CCNC1=O)C(=O)C(N)=O [Compound C90, 2-(3-chlorophenyl)-2-methylpropyl ((S)-1-(((S)-4-amino-3,4-dioxo-1-((S)-2-oxopyrrolidin-3-yl)butan-2-yl)amino)-4-methyl-1-oxopentan-2-yl)carbamate], which IC50 is on record?
The IC50 was 100 nM.

CCOP(=O)(OCC)C(O)[C@H](CCC(=O)N(C)C)NC(=O)C(CC(C)(C)C)NC(=O)OCc1cccc(Cl)c1 (stereo partly drawn) [Compound C2, 3-Chlorobenzyl (1-(((2S)-1-(diethoxyphosphoryl)-5-(dimethylamino)-1-hydroxy-5-oxopentan-2-yl)amino)-4,4-dimethyl-1-oxopentan-2-yl)carbamate] was tested. Which IC50 did it give?
The IC50 was 71000 nM.

CC(C)C[C@H](NC(=O)OCC(C)(C)c1cccc(Cl)c1)C(=O)NC(C)(C=O)CC1CCNC1=O (stereo partly drawn) [Compound C83, 2-(3-Chlorophenyl)-2-methylpropyl ((2S)-4-methyl-1-((2-methyl-1-oxo-3-(2-oxopyrrolidin-3-yl)propan-2-yl)amino)-1-oxopentan-2-yl) carbamate] was tested. Which IC50 did it give?
The IC50 was 1300 nM.

CC(C)C[C@H](NC(=O)OC1(Cc2cccc(OCc3ccccc3)c2)CC1)C(=O)N[C@H](C=O)C[C@@H]1CCNC1=O [Compound C60, 1-(3-(Benzyloxy)benzyl)cyclopropyl ((S)-4-methyl-1-oxo-1-(((S)-1-oxo-3-((S)-2-oxopyrrolidin-3-yl)propan-2-yl)amino)pentan-2-yl)carbamate] was tested. Which IC50 did it give?
Its IC50 is 600 nM.

CC(C)(c1cccc(Cl)c1)C(OC(=O)N[C@@H](CC1CCCCC1)C(=O)N[C@H](C=O)C[C@@H]1CCNC1=O)c1cccc(F)c1 (stereo partly drawn) [Compound C105, 2-(3-Chlorophenyl)-1-(3-fluorophenyl)-2-methylpropyl ((S)-3-cyclohexyl-1-oxo-1-(((S)-1-oxo-3-((S)-2-oxopyrrolidin-3-yl)propan-2-yl)amino)propan-2-yl)carbamate] was tested. Which IC50 did it give?
Its IC50 is 0.6 nM.

CCOP(=O)(OCC)C(O)[C@H](CCC(=O)N1CCOc2ccccc2C1)NC(=O)[C@H](CC1CCCCC1)NC(=O)N1CCc2ccccc21 (stereo partly drawn) [Compound C21, Diethyl ((2S)-2-((S)-3-cyclohexyl-2-(indoline-1-carboxamido)propanamido)-5-(2,3-dihydrobenzo[f][1,4]oxazepin-4(5H)-yl)-1-hydroxy-5-oxopentyl)phosphonate] was tested. Which IC50 did it give?
The IC50 was greater than 200000 nM.

With CC(C)C[C@H](NC(=O)O[C@@H](c1cccc(F)c1)C(C)(C)c1cccc(Cl)c1)C(=O)N[C@H](C=O)C[C@@H]1CCNC1=O [Compound C268] as the compound, how does the IC50 read?
Its IC50 is 20 nM.

How did the IC50 turn out when CC(C)(C)OC(=O)N1CCC(OC(=O)N[C@@H](CC2CCCCC2)C(=O)N[C@H](C=O)CCC(=O)N2CCOc3ccccc3C2)CC1 [Compound C23, Tert-butyl 4-((((S)-3-cyclohexyl-1-(((S)-5-(2,3-dihydrobenzo[f][1, 4]oxazepin-4(5H)-yl)-1,5-dioxopentan-2-yl)amino)-1-oxopropan-2-yl)carbamoyl)oxy)piperidine-1-carboxylate] was run?
The IC50 was greater than 200000 nM.

For CC(C)C[C@H](NC(=O)OC(c1cccc(Cl)c1)C1(c2cccc(Cl)c2)CC1)C(=O)N[C@H](C=O)C[C@@H]1CCNC1=O (stereo partly drawn) [Compound C203, (3-chlorophenyl)(1-(3-chlorophenyl)cyclopropyl)methyl ((S)-4-methyl-1-oxo-1-(((S)-1-oxo-3-((S)-2-oxopyrrolidin-3-yl)propan-2-yl)amino)pentan-2-yl)carbamate], which IC50 is on record?
Its IC50 is 10.5 nM.

Which IC50 does the source give for CC(=O)N1CCC2(CC1)CC(CC(C=O)NC(=O)[C@H](CC(C)C)NC(=O)OCC1CCC(F)(F)CC1)C(=O)N2 (stereo partly drawn) [Compound C64, (4,4-Difluorocyclohexyl)methyl ((2S)-1-((1-(8-acetyl-2-oxo-1,8-diazaspiro[4.5]decan-3-yl)-3-oxopropan-2-yl)amino)-4-methyl-1-oxopentan-2-yl)carbamate] here?
The IC50 was 100 nM.
